Counter-ions that a name gives are not always drawn. Calls of active or inactive are those of the source. How the calls were made is not given here.
Assay: Cytotoxicity activity against human HepG2 cells assessed by CellTiter-Glo luminescent cell viability assay.
Assay type: toxicity, cell-based
Set-up: assay stage confirmatory assay, source tissue liver
Conditions: HepG2 cells, read-out: IC50 relative
For `CN1CCN(c2ccc(OC(F)(F)F)c(Nc3ncc4c(n3)-c3c(c(C(N)=O)nn3CCO)CC4)c2)CC1` [ONVANSERTIB], the CC50 was 11.9 µM (active).
In the case of `CC(=O)c1ccc(S(=O)(=O)Nc2cccc3cccnc23)cc1`, the CC50 is reported as 3.5 µM (active).
For `Cn1ccc(C(=O)Nc2cc(F)ccc2-n2cccn2)cc1=O`, the CC50 was 1.1 µM (inactive).
For `CC(C)c1cnc(NC(=O)N2CC3(CN(C)C(=O)O3)C2)s1`, the CC50 was 12.7 µM (inactive).
With `O=S(=O)(c1ccccc1)N(CC(F)(F)F)c1ccc(C(O)(C(F)(F)F)C(F)(F)F)cc1` [T091317] the CC50 was 13.4 µM (inactive).
With `CN(C)CCCN1c2ccccc2CCc2ccc(Cl)cc21` [CLOMIPRAMINE HYDROCHLORIDE] the CC50 was 6.5 µM (active).
In the case of `c1cc(N2CCC[C@H]2C2CCCCC2)nc(C2CC2)n1`, the CC50 is reported as 11.8 µM (active).
With `O=C(Nc1cccc2cccnc12)c1cn2ccccc2n1` the CC50 was < 0.1 µM (active).
With `COc1ccc2oc(C(=O)Nc3ncccc3O)c(C)c2c1` the CC50 was 47.2 µM (inactive).
For `CC(C)Nc1cc(-c2c[nH]c(C(=O)N[C@H](CO)c3cccc(Cl)c3)c2)c(Cl)cn1` [ULIXERTINIB], the CC50 was 1 µM (active).
In the case of `CCC1CN(Cc2ccccc2OCc2cccc(OC)c2)CCN1C` (stereo not drawn), the CC50 is reported as 17.8 µM (inactive).
For `C[n+]1ccc(/C=C/c2c[nH]c3ccccc23)cc1`, the CC50 was 1.2 µM (active).
For `CCN1C(=O)COc2ccc(NC(=O)c3cc(-c4ccc5c(c4)OCCO5)on3)cc21`, the CC50 was 50 µM (inactive).
For `Cc1cccc2nc(C(=O)Nc3ccc4c(c3)OC3(CCCC3)O4)cn12`, the CC50 was 11.9 µM (active).
With `NC(=O)c1cnc2[nH]ccc2c1N[C@@H]1[C@@H]2C[C@@H]3C[C@H]1C[C@@](O)(C3)C2` the CC50 was 8 µM (active).
With `C=C(C)[C@@H]1Cc2c(ccc3c2O[C@H]2COc4cc(OC)c(OC)cc4[C@H]2C3=O)O1` the CC50 was 0.3 µM (active).
For `CCn1c(SCc2cc(=O)n3ccsc3n2)nc2sc(C)c(C)c2c1=O`, the CC50 was 20.2 µM (inactive).
With `CCNc1cc(C)nc(Nc2ccc(NC(=O)CC(C)C)cc2)n1` the CC50 was 11 µM (active).
For `Cc1cc(Nc2nc(N[C@@H](C)c3ncc(F)cn3)ncc2Cl)n[nH]1` [AZD-1480], the CC50 was 7.9 µM (active).
With `Cc1cccc(C(=O)Nc2nc3ccccc3[nH]2)n1` the CC50 was 4.4 µM (active).
For `COc1ccc(CCN2C(=O)N(C)C(=O)C23CCN(Cc2cccc(OC)c2)CC3)cc1`, the CC50 was 6.6 µM (active).
For `CC(C)c1cc(C(=O)NCc2ccc(N3CCO[C@@H](C)C3)nc2)n[nH]1`, the CC50 was 4.8 µM (active).
In the case of `COc1ccc(-c2cc3c4nn(CC(=O)Nc5cccc(OC)c5)c(=O)n4ccn3n2)cc1`, the CC50 is reported as 50 µM (inactive).
For `Cc1cc(-c2ccc(O)cc2O)nc2cc3c(cc12)OCO3`, the CC50 was 26.3 µM (inactive).
In the case of `Cc1nc(Nc2n[nH]c3c2CN(C(=O)N[C@H](CN(C)C)c2ccccc2)C3(C)C)c2sccc2n1` [PF-03758309], the CC50 is reported as 0.4 µM (active).
With `CCOCC(=O)N1CCN(c2nc3c(s2)c(C)nn3-c2ccc(OC)cc2)CC1` the CC50 was 11.5 µM (active).
In the case of `CC(C)N1CCN(Cc2cnc(-c3cc(-c4cccc5[nH]ccc45)cc4[nH]ncc34)o2)CC1` [NEMIRALISIB], the CC50 is reported as 4.4 µM (active).
For `O=C1c2ccccc2-c2n[nH]c3cccc1c23`, the CC50 was 6.2 µM (active).
With `CN(C)CCN(C)CCc1ccc(Cl)c(Cl)c1` the CC50 was 15.3 µM (inactive).
In the case of `NCc1ccc(-c2ccccc2)s1`, the CC50 is reported as 5.9 µM (active).
In the case of `O=C1c2ccccc2C(=O)c2oc(-c3ccccc3)nc21`, the CC50 is reported as 2.6 µM (active).
With `CCCCn1c(=O)c(C(=O)Nc2ccc(O)cc2)c(O)c2ccccc21` the CC50 was 23 µM (inactive).
With `Cc1cc(C)cc(NC(=O)N(C)CCc2scnc2C)c1` the CC50 was 50 µM (inactive).
In the case of `Cn1c(=O)c(F)c(Nc2ccc(I)cc2F)c2c(=O)n(C[C@@H](O)CO)cnc21` [TAK-733], the CC50 is reported as < 0.1 µM (active).
In the case of `COc1ccc(-c2cc3nccn3c(Nc3ncccc3C(N)=O)n2)cc1OC`, the CC50 is reported as 1.1 µM (active).
With `CCS(=O)(=O)N1CCc2ccc(NC(=O)Nc3cccc(Cl)c3)cc21` the CC50 was 2.6 µM (active).
For `Cc1nc(-c2ccccc2)oc1C(=O)Nc1ccc(N2CCN(C)CC2)cn1`, the CC50 was 12.9 µM (active).
With `CC(=O)CCS(=O)(=O)c1ccc(Cc2ccc(S(=O)(=O)CCC(C)=O)cc2)cc1` the CC50 was 9.2 µM (active).
For `CCN(C)C[C@H]1CCN(CCCC2CCCCC2)C1`, the CC50 was 4.5 µM (active).
In the case of `NS(=O)(=O)c1ccc(S(=O)(=O)Nc2cccc3c(Cl)c[nH]c23)cc1`, the CC50 is reported as 13.6 µM (inactive).
In the case of `O=C(Nc1nc(-c2cccnc2)cs1)c1ccccn1`, the CC50 is reported as 11.6 µM (active).
With `COc1ccc(NC(=O)Nc2ccc3c(c2)N(S(C)(=O)=O)CC3)cc1Cl` the CC50 was 10.5 µM (inactive).
In the case of `CCOC(=O)C1CCCN(C(=O)C(=O)c2c[nH]c3ccccc23)C1` (stereo not drawn), the CC50 is reported as 9.8 µM (active).
With `Cc1ccc(NC(=O)Nc2ccc3c(c2)N(S(C)(=O)=O)CC3)cc1F` the CC50 was 3.6 µM (inactive).
With `CC(=O)NCCc1ccc(C(=O)Cn2ncc(Cl)c(Cl)c2=O)s1` the CC50 was 7.8 µM (active).
In the case of `Cc1cc(C(=O)Nc2cccc(N(C)C(=O)c3coc(C)c3)c2)co1`, the CC50 is reported as 1.3 µM (active).
For `CCn1cc(CN2C[C@@H]3C[C@H](NC(C)=O)CN3C(=O)[C@@H]2CC(C)C)c2ccccc21`, the CC50 was 13.6 µM (inactive).
For `CCCN1C(=O)COc2ccc(-c3csc(NC(=O)CC(C)C)n3)cc21`, the CC50 was 18 µM (inactive).
For `O=C(Cn1ncc(Cl)c(Cl)c1=O)NCCC1=CCCCC1`, the CC50 was 4.4 µM (active).
In the case of `Cc1ccc(Sc2ccccc2N2CCNCC2)c(C)c1` [VORTIOXETINE], the CC50 is reported as 4.1 µM (active).
In the case of `CC(C)(CN)c1cccc(-c2cccc(CN)c2)c1`, the CC50 is reported as 12.3 µM (active).
For `Cc1cc(NC(=O)c2cscn2)ccc1NC(=O)c1ccco1`, the CC50 was 9.1 µM (active).
With `CNCC[C@H](Oc1cccc2ccccc12)c1cccs1` [DULOXETINE HYDROCHLORIDE] the CC50 was 4.3 µM (active).
For `NC(=O)c1coc(-c2csc(-c3ccccc3O)n2)c1`, the CC50 was 2.5 µM (active).
In the case of `COc1ccc(NC(=O)C2=C(c3ccccc3)S(=O)(=O)CCO2)c(OC)c1`, the CC50 is reported as 9.7 µM (active).
For `NC(=O)c1ccc2[nH]c(-c3ccc(Oc4ccc(Cl)cc4)cc3)nc2c1`, the CC50 was 14.7 µM (inactive).
With `C[C@@H](Oc1cc(-c2cnn(C3CCNCC3)c2)cnc1N)c1c(Cl)ccc(F)c1Cl` [CRIZOTINIB] the CC50 was 2.8 µM (active).
In the case of `COc1ccc(OC)c(C(=O)Nc2nc3ccccc3[nH]2)c1`, the CC50 is reported as 4.7 µM (active).
For `Cc1cccc(CC(=O)N2CCc3c2ccc(-c2cn(C)c4ncnc(N)c24)c3F)n1`, the CC50 was 6.7 µM (active).
In the case of `COc1ccc2cc(C(=O)Nc3ccc4oc(=O)[nH]c4c3)[nH]c2c1`, the CC50 is reported as 32.5 µM (inactive).
In the case of `CC1CCC(C(C)C)C(OC(=O)Cn2c(-c3ccc(Br)cc3)[n+](C)c3ccccc32)C1` (stereo not drawn), the CC50 is reported as 4.7 µM (active).
For `CC(NC(=O)N(C)CC1CCOCC1)c1ccccc1C(F)(F)F` (stereo not drawn), the CC50 was 50 µM (inactive).
With `COc1ccccc1C(=O)Cc1nc2ccccc2o1` the CC50 was 8 µM (inactive).
With `CCCN(CCC)CCNC(=O)Cn1cnc2onc(-c3ccc(Cl)cc3)c2c1=O` the CC50 was 5.9 µM (active).
With `CCn1c(-c2cccc(S(=O)(=O)N3CCOCC3)c2)cs/c1=N/c1ccccc1` the CC50 was 5 µM (active).
With `Cc1ccc(NC(=O)c2ccc(Cl)s2)cc1S(=O)(=O)N1CCOCC1` the CC50 was 4.7 µM (active).
In the case of `O=C(NCc1cccc(O)c1)Nc1nc(-c2ccncc2)cs1`, the CC50 is reported as 10.7 µM (inactive).
In the case of `COc1ccc(OCCCN2CCN(S(=O)(=O)c3ccc(S(N)(=O)=O)cc3)CC2)cc1`, the CC50 is reported as 15.9 µM (inactive).
For `CCN(CC)C(=O)c1sc2[nH]c(-c3ccccn3)nc(=O)c2c1C`, the CC50 was 6 µM (active).
In the case of `CCC(C)NC(=O)N1CC(Oc2ccc(-c3noc(C4CCOCC4)n3)cc2)C1` (stereo not drawn), the CC50 is reported as 4.8 µM (active).
For `NNc1ncnc2ccc(Br)cc12`, the CC50 was 2.4 µM (active).
With `c1cc2c(cc1C1=NN=C(NC3CC3)SC1)OCO2` the CC50 was 9.1 µM (active).
With `CC(C)Cn1c(=O)c2sccc2n2c(=O)n(CC(=O)Nc3ccc(F)cc3)nc12` the CC50 was 50 µM (inactive).
With `COc1ccc(-c2csc3[nH]c(=O)cc(O)c23)cc1` the CC50 was 3.7 µM (active).
For `CN(C)CCCN(CCCN(C)C)CC(c1ccccc1)c1ccccc1`, the CC50 was 7.2 µM (active).
In the case of `Cc1ccc(NC(=O)Nc2ccc3c(c2)N(S(C)(=O)=O)CC3)cc1C`, the CC50 is reported as 16.8 µM (inactive).
With `O=C1CCc2c(Oc3ccc4c(c3)[C@@H]3[C@H](O4)[C@H]3c3nc4ccc(C(F)(F)F)cc4[nH]3)ccnc2N1` [LIFIRAFENIB] the CC50 was 0.5 µM (active).
With `CCN(CC)CCNC(=O)C1CCCN(c2ncc(-c3ccc(C)cc3)cn2)C1` (stereo not drawn) the CC50 was 4.3 µM (active).
With `CCOc1ccc(-n2ccnc(NCc3ccc(OC)c(OC)c3)c2=O)cc1` the CC50 was 5.1 µM (active).
In the case of `COc1ccc(CNc2nc(N(CCO)CCO)nc3c2ncn3C(C)C)cc1`, the CC50 is reported as 0.8 µM (active).
In the case of `Cc1c(C(=O)Nc2ccc(N3C[C@@H](C)O[C@@H](C)C3)nc2)cccc1-c1ccc(OC(F)(F)F)cc1` [SONIDEGIB], the CC50 is reported as 37.3 µM (inactive).
In the case of `COc1ccccc1-c1nnc(-c2ccccc2O)o1`, the CC50 is reported as 5.3 µM (active).
For `Cc1ccnn1-c1ccc(C(=O)Nc2cc(N(C)C)ccn2)cc1`, the CC50 was 12.1 µM (active).
With `Cc1cc(OCC(O)CN2CCCCC2)cc(C)c1Cl` (stereo not drawn) the CC50 was 10.5 µM (active).
In the case of `COC1=C2C[C@@H](C)C[C@H](OC)[C@H](O)[C@@H](C)/C=C(/C)[C@H](OC(N)=O)[C@@H](OC)/C=C\C=C(\C)C(=O)NC(=CC1=O)C2=O`, the CC50 is reported as < 0.1 µM (active).
With `CN(C)CCN(CCCN)Cc1ccco1` the CC50 was 12.3 µM (active).
With `CN(C)CC[C@H](CSc1ccccc1)Nc1ccc(S(=O)(=O)NC(=O)c2ccc(N3CCN(Cc4ccccc4-c4ccc(Cl)cc4)CC3)cc2)cc1[N+](=O)[O-]` [ABT 737] the CC50 was 13.2 µM (active).
In the case of `Cn1nccc1CCNC(=O)c1csc(-c2ccoc2)n1`, the CC50 is reported as 2 µM (active).
For `O=C(Cn1nnc2ccccc21)Nc1nc(-c2ccccn2)cs1`, the CC50 was 1.7 µM (active).
In the case of `CCN1CCCCC1CNCc1ccc2cc(O)ccc2c1` (stereo not drawn), the CC50 is reported as 11.5 µM (active).
In the case of `O=S1(=O)C[C@H](NCCc2c[nH]c3ccccc23)[C@@H](S(=O)(=O)c2cccs2)C1`, the CC50 is reported as 11.6 µM (inactive).
With `C[C@@H](OC[C@@]1(c2ccccc2)CC[C@]2(CCC(=O)N2)CN1)c1cc(C(F)(F)F)cc(C(F)(F)F)c1` [ROLAPITANT] the CC50 was 8.9 µM (active).

— ChEMBL document CHEMBL5303711, “ECBD screening data for assay EOS300108” (2023)
